The supplement of paper PMC10627819

Columns and labels:
[1] = system: S. aureus DSM 20231; assay: Bliss interaction score (quartile over a dose matrix) (fitness difference); higher = more antagonism (negative = synergy)
Procedure, shortened: (§1)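 The Bliss score is observed minus expected fitness, where expected fitness is the product of the single-drug fitness values inferred from the combination data. Fitness is the OD595 at the onset of stationary phase over the plate's robust no-drug mean, capped at 1. Scores are summarised by quartiles over technical, biological and donor/recipient replicates.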

[2] = system: B. subtilis 168; assay: as above
Procedure, shortened: as §1

[3] = system: S. aureus Newman; assay: as above
Procedure, shortened: as §1

[4] = system: S. pneumoniae D39V; assay: as above
Procedure, shortened: as §1

[5] = system: S. aureus DSM 20231; assay: fitness (endpoint OD595 vs no drug) (fraction); higher = more growth
Procedure, shortened: (§2)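 Background-subtracted growth curves were the basis for fitness, taken as the optical density at entry into stationary phase over the robust mean of no-drug control wells. A cap of 1 was applied. The curves came from OD595 readings every 30 min for 14 h at 37 °C, in 384-well plates seeded at OD595 0.01 with 30 µl, or 55 µl for S. pneumoniae.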

[6] = system: B. subtilis 168; assay: as above
Procedure, shortened: as §2

[7] = system: S. aureus Newman; assay: as above
Procedure, shortened: as §2

[8] = system: S. pneumoniae D39V; assay: as above
Procedure, shortened: as §2
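Throughout, for Bliss interaction score (quartile over a dose matrix): first quartile when negative (synergy) and third quartile when positive (antagonism).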

COc1cccc2c1C(=O)c1c(O)c3c(c(O)c1C2=O)C[C@@](O)(C(=O)CO)C[C@@H]3O[C@H]1C[C@H](N)[C@H](O)[C@H](C)O1 [Doxorubicin] + CN[C@@H]1[C@H](O)[C@H](NC)[C@H]2O[C@@]3(O)C(=O)C[C@@H](C)O[C@H]3O[C@@H]2[C@H]1O [Spectinomycin]
Settings	Bliss interaction score
[1]	-0.0571
[2]	0.0605
[3]	-0.0787
[4]	0.0399

fitness
Settings	first compound 0.25 µg/mL	first compound 0.5 µg/mL	first compound 0.625 µg/mL	first compound 1 µg/mL	first compound 1.25 µg/mL	first compound 2.5 µg/mL
[5], partner 4 µg/mL	–	–	0.901	–	0.846	0.808
[5], partner 8 µg/mL	–	–	0.882	–	0.89	0.84
[5], partner 16 µg/mL	–	–	0.789	–	0.824	0.736
[6], partner 2 µg/mL	–	–	0.919	–	0.905	0.62
[6], partner 4 µg/mL	–	–	0.965	–	0.954	0.594
[6], partner 8 µg/mL	–	–	0.817	–	0.88	0.615
[7], partner 4 µg/mL	–	–	0.796	–	0.754	0.71
[7], partner 8 µg/mL	–	–	0.797	–	0.762	0.681
[7], partner 16 µg/mL	–	–	0.713	–	0.623	0.577
[8], partner 4 µg/mL	0.908	0.938	–	0.921	–	–
[8], partner 8 µg/mL	0.827	0.862	–	0.838	–	–
[8], partner 16 µg/mL	0.686	0.661	–	0.632	–	–

fitness, one replicate
Settings	first compound 0.625 µg/mL	first compound 1.25 µg/mL	first compound 2.5 µg/mL
[5], partner 32 µg/mL	0.768	0.732	0.624
[5], partner 64 µg/mL	0.0549	0.0594	0.0266
[7], partner 32 µg/mL	0.549	0.394	0.215
[7], partner 64 µg/mL	0.0592	0.0432	0.0224

COc1cccc2c1C(=O)c1c(O)c3c(c(O)c1C2=O)C[C@@](O)(C(=O)CO)C[C@@H]3O[C@H]1C[C@H](N)[C@H](O)[C@H](C)O1 [Doxorubicin] + C[C@@H]1O[C@@H]1P(=O)(O)O [Fosfomycin]
Settings	Bliss interaction score
[1]	0.0338
[2]	-0.142
[3]	0.122
[4]	-0.0488

Settings	fitness
[5], first compound 0.625 µg/mL, partner 0.781 µg/mL	0.685
[5], first compound 0.625 µg/mL, partner 1.562 µg/mL	0.587
[5], first compound 0.625 µg/mL, partner 3.124 µg/mL	0.5
[5], first compound 1.25 µg/mL, partner 0.781 µg/mL	0.681
[5], first compound 1.25 µg/mL, partner 1.562 µg/mL	0.603
[5], first compound 1.25 µg/mL, partner 3.124 µg/mL	0.493
[5], first compound 2.5 µg/mL, partner 0.781 µg/mL	0.637
[5], first compound 2.5 µg/mL, partner 1.562 µg/mL	0.506
[5], first compound 2.5 µg/mL, partner 3.124 µg/mL	0.449
[6], first compound 0.625 µg/mL, partner 1.562 µg/mL	0.7
[6], first compound 0.625 µg/mL, partner 3.124 µg/mL	0.605
[6], first compound 0.625 µg/mL, partner 6.248 µg/mL	0.412
[6], first compound 1.25 µg/mL, partner 1.562 µg/mL	0.655
[6], first compound 1.25 µg/mL, partner 3.124 µg/mL	0.518
[6], first compound 1.25 µg/mL, partner 6.248 µg/mL	0.302
[6], first compound 2.5 µg/mL, partner 1.562 µg/mL	0.369
[6], first compound 2.5 µg/mL, partner 6.248 µg/mL	0.0432
[7], first compound 0.625 µg/mL, partner 0.781 µg/mL	0.615
[7], first compound 0.625 µg/mL, partner 1.562 µg/mL	0.547
[7], first compound 0.625 µg/mL, partner 3.124 µg/mL	0.212
[7], first compound 1.25 µg/mL, partner 0.781 µg/mL	0.618
[7], first compound 1.25 µg/mL, partner 1.562 µg/mL	0.535
[7], first compound 1.25 µg/mL, partner 3.124 µg/mL	0.138
[7], first compound 2.5 µg/mL, partner 0.781 µg/mL	0.595
[7], first compound 2.5 µg/mL, partner 1.562 µg/mL	0.443
[7], first compound 2.5 µg/mL, partner 3.124 µg/mL	0.0485
[8], first compound 0.25 µg/mL, partner 1.25 µg/mL	0.881
[8], first compound 0.25 µg/mL, partner 2.5 µg/mL	0.852
[8], first compound 0.25 µg/mL, partner 5 µg/mL	0.635
[8], first compound 0.5 µg/mL, partner 1.25 µg/mL	0.938
[8], first compound 0.5 µg/mL, partner 2.5 µg/mL	0.859
[8], first compound 0.5 µg/mL, partner 5 µg/mL	0.646
[8], first compound 1 µg/mL, partner 1.25 µg/mL	0.861
[8], first compound 1 µg/mL, partner 2.5 µg/mL	0.823
[8], first compound 1 µg/mL, partner 5 µg/mL	0.669
